Assay results: US11058680B2, “Combinations of opioid/TLR4 antagonists and acetaminophen for use in the treatment of emotional pain and insomnia” (Allodynic Threapeutics, LLC, priority 2016, dated 2021)
“And” between values parts separate entries of the source, which are not always exact repeats. Equal entries are not always repeated.

Tested on: migraine attacks
Assay: Naltrexone/acetaminophen open-label pilot study, acute treatment of migraine: headache pain (4-point scale; relief score ≤1, pain-free score = 0), associated symptoms, additional meds
Assay type: in vivo, human
Description: Sixteen unique patients were enrolled in an open phase pilot study for the acute treatment of migraine attacks, insomnia, and emotional pain. Of the sixteen patients, eleven were evaluated for one migraine attack, one for two attacks, two for four attacks, one for six attacks, and one for fourteen attacks. A total of forty-one […] treatments were evaluated. Patients received a single dose of one of the following treatment options:
The majority of the patients remained in the clinic for observation for 2 hours after dosing. They completed headache diary assessments immediately before and after dosing at time points: 7, 15, and 30 minutes; and 1, 1.5, 2, 3, 6, 12, 24, and 48 hours. Headache pain was assessed on a 4-point scale (0=none; 1=mild; 2=moderate; 3=severe). The assessment of photophobia, phonophobia, nausea, and neck/shoulder pain was assessed as present or absent. The assessment of emotional pain was recorded on a 4-point scale (0=none, 1=mild, 2=moderate, 3=severe). The assessment of difficulty sleeping or falling asleep (insomnia) was assessed on a 4-point scale (0=none, 1=mild, 2=moderate, 3=severe) at baseline, for the night before treatment and for the following nights at 24, and 48 hours. Patients recorded side effects severity at each time point. Patients recorded the time of the first rescue medication dose and all additional headache medications used within 48 hours. Patients were required to stay awake to record their assessments in the first 2 hours, sleeping was permitted thereafter. While asleep, assessments were completed according to patients' best estimation. For data analysis, it was assumed that a migraine attack is a unique patient. Patients were asked to specify (yes or no answer) to whether they experienced emotional pain symptoms such as: hurt feelings, sadness, fear, or anger. Patients who replied positively to having emotional pain were asked to specify the cause into one of the following options: relationship, work/school, money/debt, health, or loss/grief.

[1] = 3 h, NTX/APAP 3.25 mg/325 mg, NTX 3.25 mg
[2] = 3 h, NTX/APAP 5 mg/325 mg, NTX 5 mg
[3] = 3 h, NTX/APAP […]325 mg, NTX 1.5 mg
[4] = 3 h, naltrexone/acetaminophen 2.25 mg/325 mg (N=21), naltrexone 2.25 mg (N=9)
[5] = 4 h, NTX/APAP 2.25 mg/325 mg, NTX 2.25 mg
[6] = 4 h, NTX/APAP 3.25 mg/325 mg, NTX 3.25 mg
[7] = 4 h, NTX/APAP 5 mg/325 mg, NTX 5 mg
[8] = 4 h, NTX/APAP […]325 mg, NTX 1.5 mg
[9] = 4 h, naltrexone/acetaminophen 2.25 mg/325 mg (N=21), naltrexone 2.25 mg (N=9)
[10] = 6 h, NTX/APAP 2.25 mg/325 mg, NTX 2.25 mg
[11] = 6 h, NTX/APAP 3.25 mg/325 mg, NTX 3.25 mg
[12] = 6 h, NTX/APAP 5 mg/325 mg, NTX 5 mg
[13] = 6 h, NTX/APAP […]325 mg, NTX 1.5 mg
[14] = 6 h, naltrexone/acetaminophen 2.25 mg/325 mg (N=21), naltrexone 2.25 mg (N=9)
[15] = 12 h, NTX/APAP 2.25 mg/325 mg, NTX 2.25 mg

O=C1CC[C@@]2(O)[C@H]3Cc4ccc(O)c5c4[C@@]2(CCN3CC2CC2)[C@H]1O5 [naltrexone]
77% and 100%: Headache pain-free [4] | Headache pain-free [14]
0: Additional meds taken [1] | Additional meds taken [2] | Additional meds taken [3] | Additional meds taken (3 h, combined doses) | Additional meds taken [6] | Additional meds taken [7] | Additional meds taken [8] | Additional meds taken (4 h, combined doses) | Additional meds taken [11] | Additional meds taken [12] | Additional meds taken [13] | Additional meds taken (6 h, combined doses)
100%: Headache pain-free (3 h, naltrexone 1.5 mg (N=3)) | Headache pain-relief [4] | Most bothersome symptom-free [4] | Headache pain-free (3 h, naltrexone/acetaminophen 3.25 mg/325 mg (N=3), naltrexone 3.25 mg (N=3)) | Headache pain-free (4 h, naltrexone 1.5 mg (N=3)) | Headache pain-free (4 h, naltrexone/acetaminophen 3.25 mg/325 mg (N=3), naltrexone 3.25 mg (N=3)) | Headache pain-free (6 h, naltrexone 1.5 mg (N=3)) | Headache pain-relief [14] | Most bothersome symptom-free [14] | Headache pain-free (6 h, naltrexone/acetaminophen 3.25 mg/325 mg (N=3), naltrexone 3.25 mg (N=3))
13 (81) n (%): Headache pain-free (4 h, combined doses)
16 (100) n (%): Headache pain-relief (3 h, combined doses) | Most bothersome symptom free (3 h, combined doses) | Nausea-free (3 h, combined doses) | Neck/shoulder pain-free (3 h, combined doses) | Phonophobia-free (3 h, combined doses) | Neck/shoulder pain-free (4 h, combined doses) | Headache pain-relief (6 h, combined doses) | Most bothersome symptom-free (6 h, combined doses) | Nausea-free (6 h, combined doses) | Neck/shoulder pain-free (6 h, combined doses) | Phonophobia-free (6 h, combined doses)
9 (100) n (%): Neck/shoulder pain-free [5] | Headache pain-relief [10] | Most bothersome symptom-free [10] | Nausea-free [10] | Neck/shoulder pain-free [10] | Phonophobia-free [10] | Headache pain-relief [15] | Most bothersome symptom-free [15]
66% and 100%: Headache pain-free [9]
8 (88) n (%): Photophobia-free (3 h, NTX/APAP 2.25 mg/325 mg, NTX 2.25 mg) | Headache pain-relief [5] | Most bothersome symptom-free [5] | Nausea-free [5] | Phonophobia-free [5] | Photophobia-free [10]
3 (100) n (%): Headache pain-free [1] | Headache pain-relief [1] | Most bothersome symptom free [1] | Nausea-free [1] | Neck/shoulder pain-free [1] | Phonophobia-free [1] | Photophobia-free [1] | Headache pain-free [3] | Headache pain-relief [3] | Most bothersome symptom free [3] | Nausea-free [3] | Neck/shoulder pain-free [3] | Phonophobia-free [3] | Photophobia-free [3] | Headache pain-free [6] | Headache pain-relief [6] | Most bothersome symptom-free [6] | Nausea-free [6] | Neck/shoulder pain-free [6] | Phonophobia-free [6] | Photophobia-free [6] | Headache pain-free [8] | Headache pain-relief [8] | Most bothersome symptom-free [8] | Nausea-free [8] | Neck/shoulder pain-free [8] | Phonophobia-free [8] | Photophobia-free [8] | Headache pain-free [11] | Headache pain-relief [11] | Most bothersome symptom-free [11] | Nausea-free [11] | Neck/shoulder pain-free [11] | Phonophobia-free [11] | Photophobia-free [11] | Headache pain-free [13] | Headache pain-relief [13] | Most bothersome symptom-free [13] | Nausea-free [13] | Neck/shoulder pain-free [13] | Phonophobia-free [13] | Photophobia-free [13]
0 (0): Additional meds taken [5] | Additional meds taken [10] | Additional meds taken [15]
88%: Headache pain-relief [9] | Most bothersome symptom-free [9]
6 (66) n (%): Headache pain-free [5]
15 (94) n (%): Photophobia-free (3 h, combined doses) | Headache pain-relief (4 h, combined doses) | Most bothersome symptom-free (4 h, combined doses) | Nausea-free (4 h, combined doses) | Phonophobia-free (4 h, combined doses) | Photophobia-free (6 h, combined doses)
1 (100) n (%): Headache pain-free [2] | Headache pain-relief [2] | Most bothersome symptom free [2] | Nausea-free [2] | Neck/shoulder pain-free [2] | Phonophobia-free [2] | Photophobia-free [2] | Headache pain-free [7] | Headache pain-relief [7] | Most bothersome symptom-free [7] | Nausea-free [7] | Neck/shoulder pain-free [7] | Phonophobia-free [7] | Photophobia-free [7] | Headache pain-free [12] | Headache pain-relief [12] | Most bothersome symptom-free [12] | Nausea-free [12] | Neck/shoulder pain-free [12] | Phonophobia-free [12] | Photophobia-free [12]
7 (77) n (%): Photophobia-free [5] | Headache pain-free [10] | Headache pain-free [15]
14 (88) n (%): Headache pain-free (3 h, combined doses) | Photophobia-free (4 h, combined doses) | Headache pain-free (6 h, combined doses)
